Measurements published in patent publication US20170173114A1, “METHODS AND COMPOSITIONS FOR INDUCTION OF UCP1 EXPRESSION” (Joslin Diabetes Center, Inc., priority 2014, published 2017).
“Also recorded” adds a separate entry of the source.

What was measured:
FGF6 mRNA = FGF6 mRNA expression in adipose tissue of mice treated with β3-adrenergic agonist; assay type: in vivo, C57BL/6 mice; settings: intraperitoneal 1 mg/kg body weight for 10 days; relative to PBS control
Method: (§1) Total RNA was isolated with QIAzol lysis reagent (Qiagen, Valencia, Calif.) and purified by RNeasy Mini columns (Qiagen) following the manufacture's instructions. cDNA was prepared from total RNA using the Advantage RT-PCR kit (BD Biosciences, Palo Alto, Calif.) according to manufacturer's instructions. Diluted cDNA was used in a PCR reaction with SYBR Green Master Mix (Applied Biosystems, Foster City, Calif.) and primers specifically designed for detection of the gene of interest. PCR reactions were run in duplicate for each sample and quantitated in the ABI Sequence Detection System (Applied Biosystems). Data were expressed as arbitrary units after normalization to levels of expression of internal controls for each sample. Sequences of primers for specific genes are each obtained from the published literature or designed using publically available gene sequence databases. Unless otherwise indicated, gene expression data described in the examples below was obtained using QPCR.
CL316,243 was administered by intraperitoneal injection to the mice at a dose of 1 mg/kg body weight for 10 days.

PTGS2 (COX2) = assay: PTGS2 mRNA / COX2 protein expression in WT-1 brown preadipocytes; assay type: cell-based, murine
Method: as §1
Cells were harvested in lysis buffer (50 mM HEPES, 137 mM NaCl, 1 mM MgCl2, 1 mM CaCl2, 10 mM Na2P2O7, 10 mM NaF, 2 mM EDTA, 10% glycerol, 1% Igepal CA-630, 2 mM vanadate, 10 μg/ml of leupeptin, 10 μg/ml of aprotinin, 2 mM phenylmethylsulfonyl fluoride; pH 7.4). After lysis, lysates were clarified by centrifugation at 12,000×g for 20 min at 4° C., the amount of protein in the supernatants was determined by the Bradford Protein Assay (Bio-Rad Laboratories, Hercules, Calif.). Proteins were directly solubilized in Laemmli sample buffer. Equal amounts of lysates were separated by sodium dodecyl sulfate-polyacrylamide gel electrophoresis and transferred to Immobolin-P membranes. […] Specifically bound primary antibodies were detected with peroxidase-coupled secondary antibody and enhanced chemiluminescence (ECL, Amersham Biosciences, Piscataway, N.J.).
To determine if FGF4, FGF5, FGF6, FGF10, FGF16, FGF17, FGF18 or FGF20 induced either UCP1 mRNA or PTGS2 mRNA expression, murine brown preadipocyte WT-1 cells (Tseng et al., Nat. Cell. Biol. (2005) 7(6):601-611) were grown in growth media (DMEM-high glucose+10% FBS) supplemented with FGF4, FGF5, FGF6, FGF10, FGF16, FGF17, FGF18, FGF20 or buffer (control) in combination with insulin (20 nM) and triidothyronine (T3, 1 nM) for three days. All FGFs were used at a dosage of 200 ng/mL. mRNA was isolated and UCP1 and PTGS2 gene expression levels were evaluated by quantitative reverse transcription polymerase chain reaction (Q-RT-PCR) analysis. […]
To test the role of specific prostaglandins (PGs) in activating UCP1 expression, WT-1 brown adipocytes were pretreated with PGE2, PGI2 and FGF6 for 24 hours. mRNA expression levels of UCP1, PTGS2, LDHA, PDK1 and PKM2 were then measured.

UCP1 = UCP1 mRNA expression (Q-RT-PCR) in WT-1 brown preadipocytes; assay type: cell-based, murine
Method: as §1
The effect of FGF6 on differentiation of WT-1 murine brown preadipocytes was also examined. WT-1 cells can be induced to undergo brown adipocyte differentiation, characterized by lipid accumulation and expression of adipogenic and brown fat markers, as described above (Klein et al. (1999) J Biol Chem 274:34795; Tseng et al. (2005) Nat Cell Biol 7:601). WT-1 cells were treated with FGF6 in growth media (DMEM+10% FBS), a vehicle control (“control” or “C” referred to in FIGS. 3A-D), or induction media (“induction” or “I” referred to in FIGS. 3A-D) as described above for seven days. Following the treatment, cells were examined for the color of the culture media in combination with oil Red O staining, expression of adipogenic markers, expression of brown fat markers, immunofluorescent staining of cells with UCP1 and DPAI, and Western blot analysis to determine the presence of UCP1 and β-tubulin. The results are described in FIGS. 3A to 3D.
UCP1 mRNA expression in brown adipocyte cells was determined at FGF6 concentrations ranging from 0 to 300 ng/ml in the absence of induction cocktail.
In order to determine the length of time necessary to induce UCP1 expression upon exposure to of cells to FGF6, an experiment was performed whereby FGF6 was administered to brown preadipocytes at a concentration of 200 ng/ml and UCP1 expression was determined. FGF21 and a control were also used in the time course experiment. FGF21, a member of the endocrine FGF ligands that has been implicated in the browning of white fat (Fisher F. M. et al., Genes Dev. 26:271-281, 2012). […] FGF6 could acutely induce a significant increase of UCP1 expression as early as 4 hours after a 200 ng/ml dose, as described in FIG. 4B. At 24 hours, the fold-induction of UCP1 mRNA by FGF6 reached 700-fold higher than the untreated cells, as described in FIG. 4B.
To assess FGF6's role in the regulation of mitochondrial activity, FGF6 was stably expressed in WT-1 brown preadipocytes and 3T3-F442A white preadipocytes. Stable cells were generated by viral infection followed by drug selection.
FGF2, FGF6 and FGF9 were used at a dosage of 50 ng/mL, 100 ng/mL, 200 ng/mL or 300 ng/mL. FGF21 was used at the dosage of 50 ng/ml and 500 ng/mL. The concentration of BMP7 was 3.3 nM. RNA was isolated and UCP1 and PPARγ expression levels were evaluated by quantitative reverse transcription polymerase chain reaction (Q-RT-PCR) analysis after 24 hours (i.e., 1 day) (FIG. 14A), 2 days (FIG. 14B), 5 days (FIG. 14C) and 7 days (FIG. 14D) of treatment. All experiments were performed triplicate and the data are presented as mean+/−SEM.
FGF2, FGF6 and FGF9 were used at a dosage of 200 ng/mL. FGF21 was used at a dosage of 500 ng/mL. The concentration of BMP7 was 3.3 nM. mRNA was isolated and UCP1 and PPARγ expression levels were evaluated by quantitative reverse transcription polymerase chain reaction (Q-RT-PCR) analysis after 24 hours (i.e., 1 day), 2 days, 5 days and 7 days of treatment (FIG. 15). […]

PGE2-EP4 receptor = target: T1, PGE2-EP4 receptor (Mus musculus, UniProt P32240); assay: PGE2-EP4 receptor inhibitor effect on FGF6-induced UCP1 mRNA in WT-1 cells; assay type: cell-based, murine; settings: 10 uM, with FGF6 24 hours
T1 construct: endogenous in cells; host or cells: WT-1 murine brown preadipocytes
Method: The role of the PGE2-EP4 receptor was also examined. WT-1 brown adipocytes were pretreated with AH-23848 (Sigma Aldrich), a calcium salt which is an inhibitor of the PGE2-EP4 receptor. Following AH-23848 (“AH”) treatment of the WT-1 cells at concentrations of 0 uM and 10 uM, the cells were treated with FGF6 alone in growth media (DMEM+10% FBS), AH alone, or the combination of FGF6 and AH for 24 hours. UCP1 mRNA expression for each group was then determined.

[1] = tested on: PPARγ, aP2, FAS, PRDM16, PGC1α, CIDEA; assay: Adipogenic and brown fat marker mRNA expression in WT-1 brown preadipocytes; assay type: cell-based, murine
Method: as §1, with “QPCR. […]” for “QPCR.”
FGF2, FGF6 and FGF9 were used at a dosage of 50 ng/mL, 100 ng/mL, 200 ng/mL or 300 ng/mL. […] RNA was isolated and UCP1 and PPARγ expression levels were evaluated by quantitative reverse transcription polymerase chain reaction (Q-RT-PCR) analysis after 24 hours (i.e., 1 day) (FIG. 14A), 2 days (FIG. 14B), 5 days (FIG. 14C) and 7 days (FIG. 14D) of treatment. […]

UCP1 and PTGS2 = UCP1 and PTGS2 mRNA in WT-1 cells undergoing adipocyte differentiation; assay type: cell-based, murine; settings: after induction media; 200 ng/mL FGF or 3.3 nM BMP7, 2 days
Method: In a separate experiment investigating the ability of FGF proteins to induce UCP1 expression in cells undergoing adipocyte differentiation, WT-1 preadipocyte cells were differentiated by culturing in growth media supplemented with insulin (20 nM) and triiodothyronine (T3, 1 nM) for 3 days, followed by incubation in an induction media (growth medium supplemented 20 nM insulin, 1 nM T3, 0.5 mM isobutyl-methylxanthine, 5 μM dexamethasone) for 2 days. The cell were then exposed to BMP7 (3.3 nM) or 200 ng/mL of FGF2, FGF6 or, FGF9 in growth media supplemented with insulin (20 nM) and triodothyronine (T3, 1 nM) for 2 additional days. Cells were harvested and UCP1 and PTGS2 mRNA expression levels were determined according to the quantitative RT-PCR assay described above. Experiments were performed in triplicate and the data presented as mean+/−SEM.

UCP1 protein = UCP1 protein in WT-1 cells (immunofluorescent staining, Western blot); assay type: cell-based, murine; settings: WT-1, 200 ng/mL with insulin 20 nM and T3 1 nM; relative to control cells
Method: Cells were harvested in lysis buffer (50 mM HEPES, 137 mM NaCl, 1 mM MgCl2, 1 mM CaCl2, 10 mM Na2P2O7, 10 mM NaF, 2 mM EDTA, 10% glycerol, 1% Igepal CA-630, 2 mM vanadate, 10 μg/ml of leupeptin, 10 μg/ml of aprotinin, 2 mM phenylmethylsulfonyl fluoride; pH 7.4). After lysis, lysates were clarified by centrifugation at 12,000×g for 20 min at 4° C., the amount of protein in the supernatants was determined by the Bradford Protein Assay (Bio-Rad Laboratories, Hercules, Calif.). Proteins were directly solubilized in Laemmli sample buffer. Equal amounts of lysates were separated by sodium dodecyl sulfate-polyacrylamide gel electrophoresis and transferred to Immobolin-P membranes. Membranes were blocked overnight at 4° C. and incubated with the indicated antibody for 2 hours at room temperature. Specifically bound primary antibodies were detected with peroxidase-coupled secondary antibody and enhanced chemiluminescence (ECL, Amersham Biosciences, Piscataway, N.J.).
The effect of FGF6 on differentiation of WT-1 murine brown preadipocytes was also examined. WT-1 cells can be induced to undergo brown adipocyte differentiation, characterized by lipid accumulation and expression of adipogenic and brown fat markers, as described above (Klein et al. (1999) J Biol Chem 274:34795; Tseng et al. (2005) Nat Cell Biol 7:601). […]

[2] = 50, 100 or 300 ng/mL with insulin and T3, three days, FGF1 effect at 300 ng/ml
[3] = 200 ng/mL with insulin and T3, three days

T1 sequence (P32240 whole entry): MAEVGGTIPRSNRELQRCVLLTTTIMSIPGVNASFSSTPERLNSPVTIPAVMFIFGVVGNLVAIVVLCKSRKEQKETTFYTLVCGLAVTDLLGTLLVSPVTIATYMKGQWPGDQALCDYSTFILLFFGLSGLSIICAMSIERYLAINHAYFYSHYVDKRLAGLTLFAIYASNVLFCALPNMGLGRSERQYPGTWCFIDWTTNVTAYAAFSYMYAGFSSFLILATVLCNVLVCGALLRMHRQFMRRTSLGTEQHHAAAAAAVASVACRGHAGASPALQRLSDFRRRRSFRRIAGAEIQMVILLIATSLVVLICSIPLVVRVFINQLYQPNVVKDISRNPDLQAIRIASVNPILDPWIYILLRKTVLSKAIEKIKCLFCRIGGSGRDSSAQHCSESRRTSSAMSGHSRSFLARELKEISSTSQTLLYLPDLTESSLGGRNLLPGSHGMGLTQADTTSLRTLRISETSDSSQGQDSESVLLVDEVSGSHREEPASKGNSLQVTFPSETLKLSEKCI

Molecule: C[C@H](Cc1ccc2c(c1)OC(C(=O)[O-])(C(=O)[O-])O2)NC[C@H](O)c1cccc(Cl)c1.[Na+].[Na+] [CL316,243]
- FGF6 mRNA expression levels in interscapular BAT and subcutaneous WAT (FGF6 mRNA): increased

Molecule: FGF1: fibroblast growth factor 1, recombinant human, R&D Systems
- PTGS2 mRNA expression (PTGS2 (COX2); [2]): induced expression
- UCP1 mRNA expression (UCP1; [2]): induced expression

Molecule: O=C(O)CC/C=C\CC[C@H]1[C@H](N2CCOCC2)C(=O)C[C@H]1OCc1ccc(-c2ccccc2)cc1 [AH-23848]
- effect of FGF6 on UCP1 expression in the presence of inhibitor (PGE2-EP4 receptor): reduced; also recorded: suppression

Molecule: FGF2: fibroblast growth factor 2, recombinant human, R&D Systems
- PPARγ expression level, time course ([1]; 200 ng/mL with insulin and T3, 1, 2, 5, 7 days): very low levels of PPARγ
- PPARγ expression level ([1]; 50-300 ng/mL with insulin and T3, 1, 2, 5 and 7 days): very low levels of PPARγ
- PTGS2 mRNA expression in cells undergoing adipocyte differentiation (UCP1 and PTGS2): able to induce
- UCP1 mRNA expression in cells undergoing adipocyte differentiation (UCP1 and PTGS2): able to induce
- UCP1 protein, immunofluorescent staining (UCP1 protein): significant levels of staining
- UCP1 expression level (UCP1; 50-300 ng/mL with insulin and T3, 1, 2, 5 and 7 days, dose-responsive): very high levels of UCP1
- UCP1 expression level, time course (UCP1; FGF2, FGF6, FGF9 200 ng/mL, FGF21 500 ng/mL, with insulin and T3, 1, 2, 5, 7 days): very high levels of UCP1

Molecule: FGF20: fibroblast growth factor 20
- PTGS2 mRNA expression relative to the control (PTGS2 (COX2); [3]): increased

Molecule: FGF16: fibroblast growth factor 16
- expression of UCP1 (UCP1; [3]): minimal expression
